Results published in patent publication US8859508B2, “Application of 5-methyl-1,3-benzenediol or derivatives thereof in the preparation of medicines and functional foods for treatment or prevention of depression” (Kunming Institute of Botany, Chinese Academy of Sciences, priority 2007, dated 2014).

Columns and labels:
SD model mice = assay: FST in sleep deprivation (SD) model mice; assay type: in vivo, mouse
Experimental: (§1) Kunming mice (Certificate Number: A4CXK(Chuan)2003-16) from the Institute of Experimental Animals, People's Hospital of Sichuan Province, were used. They were 3-4 weeks old at the beginning of the experiments and weighed 25-30 g. ORG was prepared as described in Example 1. Animals were divided into experiment groups with different doses, a vehicle control group, and an imipramine group (Sigma, Batch No. 1061c1588) as positive control.
SD model: A modified method with multiple platforms in a water environment was used to establish the SD model in mice. Mice on the platforms were free to eat and drink. However, if it fell asleep, it fell into the water because of the loss of muscle tone. The fallen animal climbed onto the platform again via a tilt pole which propped up the platforms. After 72 h of sleep deprivation, ORG was administered orally 24 h and 5 h before the FST started. The immobility time of animals were recorded. Methods and data analysis were as described above.

CMS model mice = assay: FST in chronic unpredictable mild stress (CMS) model mice; assay type: in vivo, mouse; details: for Immobility time (s) (mean ± SEM): oral once a day for 7 days
Experimental: as §1, with “of” for “of the”, “106k1588)” for “1061c1588)”
CMS model: The chronic mild stresses that Kunming mice were subjected to were reversal of circadian rhythm, continuous light, cold, damp bedding, tilt cages, food and water restriction, and restraint. […] The stress period lasted for 8 weeks. In the last week, ORG was administered orally once a day for 7 consecutive days. The behavioral test was carried out 30 min after the last administration. The parameter tested was immobility time in the FST and TST in the CMS model mice. The methods of FST and TST and data analysis were as described above.

Sprague-Dawley rats = assay: Forced swim test (FST) in rats; assay type: in vivo, rat; details: for Immobility time (s) (mean ± SEM): i.g.
rats = assay: Subacute toxicity test of ORG in rats; assay type: in vivo
Experimental: Rats (Certificate Number: A4CXK(Chuan)2003-16) from the Institute of Experimental Animals, People's Hospital of Sichuan Province, were used. Their weight was 250-300 g. ORG was prepared as described in Example 1.
There was no significant difference between the two groups.

Kunming mice [1] = assay: Elevated plus maze (EPM) test in mice; assay type: in vivo, mouse; details: i.p. 24 h and 5 h before test
Experimental: as §1, with “experiment” for “experiments”, “drug administration” for “experiment”, “doses of ORG,” for “doses,”, “a diazepam” for “an imipramine”, “(Jinyao Ltd. Co.,” for “(Sigma,”, “106k1588)” for “1061c1588)”
Elevated plus maze (EPM): The EPM had two open and two closed arms of equal size (30 cm long×5 cm wide). The two closed arms were connected by a central 5 cm×5 cm area. The whole maze was elevated to a height of 35 cm. ORG was administered i.p. 24 h and 5 h before the test started. Mice were individually placed in the center of the maze facing a closed arm. Each animal was tested for 5 min in a single session. The number of entrances into open arms, the number of entrances into closed arms, the total time spent in open arms, and the total time spent in closed arms were recorded; a standard of entry was defined as all limbs entering the arm. The number of entrances into open arms and time spent in open arms were the major indexes to evaluate the anxiety level of the animals, for the more entrances or time, the less the anxiety level.
Data analysis: The results of the test are expressed as mean±SEM. One-way ANOVA was used followed by the LSD test with SPSS 11 software. The significance level was set at P<0.05.

Kunming mice [2] = assay: Tail suspension test (TST) in mice
[3] = 1750 mg/kg orally once per day for 14 consecutive days

Cc1cc(O)cc(OC2OC(CO)C(O)C(O)C2O)c1 [ORG, orcinol-1-O-β-D-glucopyranoside]
dose of the best efficacy (SD model mice; FST, SD model mice, ORG oral twice): 10 mg/kg | ED50 (SD model mice; Mus musculus, FST, SD model mice, ORG oral twice): ~3.79 mg/kg | therapeutic index = TD50÷ED50 (SD model mice; SD mice, FST): > 462 | Immobility time (s) (mean ± SEM) (SD model mice; SD model mice (72 h sleep deprivation), oral 24 h and 5 h before FST, 1.25 mg/kg): 198.00 ± 11.43 s | Immobility time (s) (mean ± SEM) (SD model mice; SD model mice, 24 h and 5 h before FST, 7.5 mg/kg): 153.00 ± 11.83 s | Immobility time (s) (mean ± SEM) (SD model mice; SD model mice, oral 24 h and 5 h before FST, 2.5 mg/kg): 177.67 ± 15.95 s | Immobility time (s) (mean ± SEM) (SD model mice; SD model mice, oral 24 h and 5 h before FST, 5 mg/kg): 160.80 ± 11.64 s | Immobility time (s) (mean ± SEM) (SD model mice; SD model mice, oral 24 h and 5 h before FST, 10 mg/kg): 148.23 ± 7.80 s | Immobility time (s) (mean ± SEM) (SD model mice; SD model mice, oral 24 h and 5 h before FST, 20 mg/kg): 162.67 ± 9.27 s | therapeutic index (TI) = TD50÷ED50 (CMS model mice; CMS mice): > 2160 | Immobility time (s) (mean ± SEM) (CMS model mice; CMS mice, 2.5 mg/kg): 177.00 ± 11.78 s | Immobility time (s) (mean ± SEM) (CMS model mice; CMS mice, 5 mg/kg): 177.50 ± 12.39 s | Immobility time (s) (mean ± SEM) (CMS model mice; CMS mice, 10 mg/kg): 170.84 ± 10.48 s | Immobility time (s) (mean ± SEM) (CMS model mice; CMS mice, 20 mg/kg): 164.95 ± 11.36 s | Immobility time (s) (mean ± SEM) (CMS model mice; CMS mice, test 30 min after last dose, 1.25 mg/kg): 190.90 ± 12.94 s | best dose for the antidepressant effect (CMS model mice; CMS model mice, ORG oral): 20 mg/kg | ED50 (CMS model mice; Mus musculus, CMS model mice, ORG oral): 0.81 mg/kg | dose of the best efficacy (Sprague-Dawley rats; ORG administered orally): 4 mg/kg | ED50 (Sprague-Dawley rats; Rattus norvegicus, po, ORG administered orally): ~0.22 mg/kg | Immobility time (s) (mean ± SEM) (Sprague-Dawley rats; 0.0625 mg/kg, given at 0 and 19 h after pre-test swim): 187.20 ± 11.97 s | Immobility time (s) (mean ± SEM) (Sprague-Dawley rats; 0.125 mg/kg): 181.50 ± 8.19 s | Immobility time (s) (mean ± SEM) (Sprague-Dawley rats; 0.1875 mg/kg): 138.90 ± 13.31 s | Immobility time (s) (mean ± SEM) (Sprague-Dawley rats; 0.25 mg/kg): 121.05 ± 9.44 s | Immobility time (s) (mean ± SEM) (Sprague-Dawley rats; 0.5 mg/kg): 113.70 ± 6.74 s | Immobility time (s) (mean ± SEM) (Sprague-Dawley rats; 1 mg/kg): 96.87 ± 7.40 s | Immobility time (s) (mean ± SEM) (Sprague-Dawley rats; 2 mg/kg): 91.60 ± 7.06 s | Immobility time (s) (mean ± SEM) (Sprague-Dawley rats; 4 mg/kg): 84.40 ± 9.20 s | Immobility time (s) (mean ± SEM) (Sprague-Dawley rats; 8 mg/kg): 94.30 ± 9.86 s | Immobility time (s) (mean ± SEM) (Sprague-Dawley rats; 16 mg/kg): 91.40 ± 11.36 s | Immobility time (s) (mean ± SEM) (Sprague-Dawley rats; 32 mg/kg): 107.26 ± 10.74 s | Immobility time (s) (mean ± SEM) (Sprague-Dawley rats; 64 mg/kg): 105.90 ± 19.77 s | Immobility time (s) (mean ± SEM) (Sprague-Dawley rats; 128 mg/kg): 103.00 ± 17.42 s | subacute toxicity: appearance, behavior, mental status, appetite, hair, color, breathing (rats; [3]): nothing abnormal was found | subacute toxicity: survival (rats; [3]): All rats survived | subacute toxicity: weight gain (rats; [3]): the weight gain was normal | subacute toxicity: pathological section of visceral organs (rats; 1750 mg/kg orally once per day for 14 days, sacrificed on day 14): no evident abnormalities | Number of entries into open arms (mean ± SEM) (Kunming mice [1]; 5 mg/kg): 4.50 ± 0.58 | Total time spent in the open arms (s) (mean ± SEM) (Kunming mice [1]; 5 mg/kg): 50.00 ± 8.99 s | Number of entries into open arms (mean ± SEM) (Kunming mice [1]; 20 mg/kg): 1.80 ± 0.79 | Total time spent in the open arms (s) (mean ± SEM) (Kunming mice [1]; 20 mg/kg): 16.50 ± 3.60 s | Number of entries into open arms (mean ± SEM) (Kunming mice [1]; 100 mg/kg): 5.90 ± 0.57 | Total time spent in the open arms (s) (mean ± SEM) (Kunming mice [1]; 100 mg/kg): 70.60 ± 11.56 s | ED50 (Kunming mice [2]; Mus musculus): ~0.73 mg/kg | dose of the best efficacy (Kunming mice [2]; TST mice, ORG i.g. 24 h and 5 h before test): 12 mg/kg | Immobility time (s) (mean ± SEM) (Kunming mice [2]; TST mice, i.g. 24 h and 5 h before test, 0.1875 mg/kg): 161.70 ± 6.89 s | Immobility time (s) (mean ± SEM) (Kunming mice [2]; TST mice, i.g., 0.375 mg/kg): 155.68 ± 6.77 s | Immobility time (s) (mean ± SEM) (Kunming mice [2]; TST mice, i.g., 0.5 mg/kg): 125.30 ± 6.93 s | Immobility time (s) (mean ± SEM) (Kunming mice [2]; TST mice, i.g., 0.75 mg/kg): 117.33 ± 6.56 s | Immobility time (s) (mean ± SEM) (Kunming mice [2]; TST mice, i.g., 1.5 mg/kg): 109.27 ± 6.81 s | Immobility time (s) (mean ± SEM) (Kunming mice [2]; TST mice, i.g., 3 mg/kg): 98.07 ± 5.95 s | Immobility time (s) (mean ± SEM) (Kunming mice [2]; TST mice, i.g., 6 mg/kg): 89.73 ± 5.02 s | Immobility time (s) (mean ± SEM) (Kunming mice [2]; TST mice, i.g., 12 mg/kg): 77.67 ± 5.33 s | Immobility time (s) (mean ± SEM) (Kunming mice [2]; TST mice, i.g., 24 mg/kg): 91.03 ± 7.44 s | Immobility time (s) (mean ± SEM) (Kunming mice [2]; TST mice, i.g., 48 mg/kg): 100.20 ± 10.46 s | Immobility time (s) (mean ± SEM) (Kunming mice [2]; TST mice, i.g., 96 mg/kg): 107.68 ± 8.85 s | therapeutic index (TI) = TD50÷ED50 (Kunming mice [2]; mice, TST): > 2397
